Converted amounts (≈) assume the structure as drawn.
Assays:
[1] = test system: zebrafish; set-up: method as in PMID 40283925; conditions: tested previously in zebrafish; cited from earlier work
[2] = test system: A431 tumor cells; set-up: method as in PMID 40283925; conditions: racemic form; cited from earlier work
[3] = test system: 3T3 fibroblasts; set-up: method as in PMID 40283925; conditions: normal 3T3 fibroblasts, racemic form; cited from earlier work
[4] = test system: HeLa cells; experiment: MTT cell viability assay, HeLa; assay type: cell-based; conditions: Homo sapiens, 24 h
Experimental: (§1) The murine Swiss albino fibroblast (3T3), the immortal human keratinocyte (HaCaT), the squamous cell carcinoma (A431), the human epithelial carcinoma (HeLa) and the human breast adenocarcinoma (MCF-7) cell lines were sourced from Celltec UB (Barcelona, Spain). All cells were maintained and grown in DMEM medium (4.5 g/L glucose) supplemented with 10% (v/v) FBS, 2 mM L-glutamine, 100 U/mL penicillin and 100 μg/mL streptomycin at 37 °C, 5% CO2. Cells were routinely cultured in 75 cm^2 culture flasks and were trypsinized using trypsin-EDTA when the cells reached approximately 80%. Cell concentration in the resulting suspension was assessed using the trypan blue assay, which enables direct discrimination between viable (unstained) and non-viable (blue) cells.
(§2) T3 and HaCaT cells (1 × 10^5 cells/mL), along with A431, HeLa, and MCF-7 cells (5 × 10^4 cells/mL), were cultured at defined seeding densities in the 60 central wells of a 96-well plate. Cells were first incubated for 24 h under standard incubator conditions (5% CO2, 37 °C). After this period, the culture medium was removed, and the cells were incubated for an additional 24 h with their corresponding compound solutions (1 mg/mL) previously diluted in a minimum amount of DMF (dimethylformamide) and then in DMEM medium supplemented with 5% FBS (100 µL) at the required concentration range (20 to 250 µg/mL). Cell viability following exposure to the lactam derivatives was evaluated using two complementary assays: NRU and MTT.
(§3) Only living cells can reduce the yellow tetrazolium salt 3-(4,5-dimethyl-2-thiazolyl)-2,5-diphenyltetrazolium bromide (MTT) to insoluble purple formazan crystals. After a 24 h incubation of the cells with their corresponding NPs, the medium was removed and 100 µL of MTT (Sigma-Aldrich, St. Louis, MO, USA) in PBS (5 mg/mL) diluted 1:10 in culture medium without phenol red and without FBS (Lonza, Verviers, Belgium) was added to the cells. After 3 h of incubation, the medium was removed. Thereafter, 100 µL of DMSO (Sigma-Aldrich, St. Louis, MO, USA) was added to each well to dissolve the purple formazan crystals. Agitation and absorbance measurements of the extracted solution were carried out under the same conditions described for the NRU assay. The effect of each treatment was then expressed as the percentage of tetrazolium salt reduction by viable cells relative to untreated controls.
(§4) The half-maximal inhibitory concentration (IC50) values for the different formulations, across cell lines and experimental endpoints, were obtained by fitting the concentration-dependent viability curves. […] These findings reflect the very low cytotoxicity of the compounds toward these cell lines.

[5] = test system: HaCaT cells; experiment: MTT cell viability assay, HaCaT; assay type: cell-based; conditions: Homo sapiens, 24 h
Experimental: as §1, §2, §3, §4

[6] = test system: MCF-7 cells; experiment: MTT cell viability assay, MCF-7; assay type: cell-based; conditions: Homo sapiens, MCF7; MCF-7, MTT, 24 h
Experimental: as §1, §2, §3, §4

[7] = test system: 3T3 cells; experiment: MTT cell viability assay, 3T3; assay type: cell-based; conditions: Mus musculus, NIH3T3; 3T3, MTT, 24 h
Experimental: as §1, §2, §3, §4

[8] = test system: 3T3, HaCaT, A431, HeLa and MCF-7 cells; experiment: Cell viability assays (MTT and NRU), summary across the cell panel; assay type: cell-based; conditions: for IC50: MTT and NRU, summary statement over cell lines
Experimental: as §1, §2
(§5) The neutral red uptake (NRU) assay is based on the accumulation of dye in the lysosomes of viable cells. After the cells were incubated for 24 h with the corresponding systems, the medium was removed, and the solutions were incubated with the NR dye (Sigma-Aldrich, St. Louis, MO, USA) solution (50 µg/mL) dissolved in the medium, without FBS and without phenol red (Lonza, Verviers, Belgium), for 3 h. […] The absorbance of the resulting solutions was measured at 550 nm (Bio-Rad 550 microplate reader, Bio-Rad California, Hercules, CA, USA). Finally, the effect of each treatment was calculated as the percentage of dye uptake by viable cells relative to the control cells (cells without any treatment). […]
(§6) Only living cells can reduce the yellow tetrazolium salt 3-(4,5-dimethyl-2-thiazolyl)-2,5-diphenyltetrazolium bromide (MTT) to insoluble purple formazan crystals. […] Agitation and absorbance measurements of the extracted solution were carried out under the same conditions described for the NRU assay. The effect of each treatment was then expressed as the percentage of tetrazolium salt reduction by viable cells relative to untreated controls. […]

[9] = Hemolysis assay; assay type: cell-based; conditions: human, human erythrocyte suspension, pH 7.4, 10 and 80 µg/mL
Experimental: Human blood samples were obtained from the Banc de Sang i Teixits de Barcelona (Barcelona, Spain) under the Catalan Department of Health. Blood was collected in tubes containing the anticoagulant EDTA-K3. Samples were centrifuged at 3000 rpm and 4 °C for 10 min (Megafuge 2.0 R, Heraeus Instruments, Hanau, Germany) to promote sedimentation, after which plasma was carefully eliminated using a Pasteur pipette. The remaining pellet was washed with PBS (pH 7.4) three times to remove residual leukocytes and platelets while concentrating erythrocytes. After the final wash, the erythrocyte pellet was resuspended in PBS (pH 7.4) at a 1:1 ratio to achieve a final erythrocyte concentration of 8 × 10^9 cells/mL.
The hemolysis assay is used to evaluate the ability of the tested compounds to disrupt erythrocyte membranes. Stock solutions of each compound were prepared in PBS (pH 7.4) at a concentration of 1 mg/mL. Volumes ranging from 10 to 80 μL were transferred into polystyrene tubes, followed by the addition of 25 µL of the erythrocyte suspension, bringing the total volume to 1 mL. The samples were incubated at room temperature under gentle rotation and subsequently centrifuged at 10,000 rpm for 5 min. The absorbance of the resulting supernatants at 540 nm (Shimadzu UV-160A, Shimadzu, Duisburg, Germany) was measured and compared with that of the positive control (erythrocytes hemolyzed with distilled water) and the negative control (erythrocytes suspension in PBS, pH 7.4).
The degree of hemolysis was determined using the following equation:Hemolysis (%) = 100 × (Abs − Abs0)/(Abs100 − Abs0) where Abs, Abs0 and Abs100 are the absorbance of the test samples, of the suspension treated with isotonic phosphate–buffered saline (PBS) and of the suspension of complete hemolysis treated with distilled water, respectively.

[10] = test system: A431 cells; experiment: NRU cell viability assay, A431; assay type: cell-based, human; conditions: Homo sapiens, A-431, 24 h
Experimental: as §1, §2
(§7) The neutral red uptake (NRU) assay is based on the accumulation of dye in the lysosomes of viable cells. After the cells were incubated for 24 h with the corresponding systems, the medium was removed, and the solutions were incubated with the NR dye (Sigma-Aldrich, St. Louis, MO, USA) solution (50 µg/mL) dissolved in the medium, without FBS and without phenol red (Lonza, Verviers, Belgium), for 3 h. Cells were then washed with sterile PBS, followed by the addition of 100 µL of a solution containing 50% absolute ethanol and 1% acetic acid in distilled water to extract the dye. To promote the total dissolution of the dye, plates were placed in a microtiter-plate shaker for 5 min at room temperature. The absorbance of the resulting solutions was measured at 550 nm (Bio-Rad 550 microplate reader, Bio-Rad California, Hercules, CA, USA). Finally, the effect of each treatment was calculated as the percentage of dye uptake by viable cells relative to the control cells (cells without any treatment). Finally, the effect of each treatment was calculated as the percentage of dye retained by viable cells compared with untreated control cells.
as §4

[11] = test system: 3T3 cells; experiment: NRU cell viability assay, 3T3; assay type: cell-based; conditions: Mus musculus, NIH3T3; 3T3, NRU, 24 h
Experimental: as §1, §2
as §7, with “[…]” for “control cells.”

[12] = test system: HaCaT cells; experiment: NRU cell viability assay, HaCaT; assay type: cell-based; conditions: Homo sapiens, 24 h
Experimental: as §1, §2
as §7, with “[…]” for “control cells.”

[13] = test system: MCF-7 cells; experiment: NRU cell viability assay, MCF-7; assay type: cell-based, human; conditions: Homo sapiens, MCF7; MCF-7, NRU, 24 h
Experimental: as §1, §2, §7, §4

[14] = test system: A431 cells; experiment: MTT cell viability assay, A431; assay type: cell-based; conditions: Homo sapiens, A-431, 24 h
Experimental: as §1, §2, §3, §4

[15] = test system: HeLa cells; experiment: NRU cell viability assay, HeLa; assay type: cell-based, human; conditions: Homo sapiens, 24 h
Experimental: as §1, §2, §7, §4

[16] = test system: different cell lines; set-up: method as in PMID 38731527; conditions: across different cell lines, racemic form; cited from earlier work
[17] = Cell viability assays (MTT and NRU), summary across the cell panel; assay type: cell-based; conditions: MTT, most cell lines, highest tested concentration
Experimental: as §1, §2, §5, §6

CC(C)(C)N1C(=O)C(Cl)(Cl)C1c1ccccc1 (stereo not drawn) [β-lactam 1]
LC50 [1]: 14.9 µg/mL (≈ 54.7 µM)
IC50 [2]: 35 to 71 µg/mL
IC50 [3]: > 210 µg/mL

C[C@H](c1ccccc1)N1C[C@@H](C)C(Cl)(Cl)C1=O [epi-4]
IC50 [4]: > 250 µg/mL
IC50 [5]: > 250 µg/mL
IC50 [6]: > 250 µg/mL
IC50 [7]: 145 µg/mL (≈ 534 µM)
IC50 [8]: > 100 µg/mL
hemolysis [9]: < 2%
IC50 [10]: 61.7 µg/mL (≈ 227 µM)
IC50 [11]: 153 µg/mL (≈ 563 µM)
IC50 [12]: > 250 µg/mL
IC50 [13]: > 250 µg/mL
IC50 [14]: 177 µg/mL (≈ 651 µM)
IC50 [15]: > 250 µg/mL

CC(C)(C)N1CC(CCl)C(Cl)(Cl)C1=O (stereo not drawn) [compound 2]
IC50 [16]: 100 to 250 µg/mL

C[C@@H](c1ccccc1)N1C[C@H](C)C(Cl)(Cl)C1=O [epi-3]
IC50 [4]: > 250 µg/mL
IC50 [5]: > 250 µg/mL
IC50 [6]: > 250 µg/mL
IC50 [7]: 68.1 µg/mL (≈ 250 µM)
viability at 24 h, 250 µg/mL [17]: ≥ 80%
IC50 [8]: > 68 µg/mL
cell survival ([8]; NRU, several lines, 250 µg/mL): around 60%
hemolysis [9]: < 2%
IC50 [10]: 123 µg/mL (≈ 452 µM)
IC50 [11]: 77.2 µg/mL (≈ 284 µM)
IC50 [12]: > 250 µg/mL
IC50 [13]: > 250 µg/mL
IC50 [14]: 170 µg/mL (≈ 624 µM)
IC50 [15]: 214 µg/mL (≈ 786 µM)
